Data reported in patent US20160074401A1, “COMPOSITIONS AND METHODS UTILIZING PHOSPHODIESTERASE INHIBITORS TO TREAT BLAST-INDUCED TINNITUS AND/OR HEARING LOSS” (WAYNE STATE UNIVERSITY, priority 2013, published 2016).

Legend:
[1] = upon oral intake; cited from earlier work
[2] = test system: blast-exposed Sprague Dawley rats (blast-induced tinnitus); test: Gap-detection testing (acoustic startle) for blast-induced tinnitus
Source text: Thirty adult Sprague Dawley rats (110 days old, 250-300 g) were purchased from Charles River Laboratories (Wilmington, Mass.).
Animals underwent 8 rounds of behavior testing to stabilize baseline Gap-detection and PPI performance prior to blast or sham-blast exposure. […] Briefly, each rat was placed in a custom-built polycarbonate restrainer (FIG. 1) and set inside a lit startle monitor cabinet equipped with two ceiling speakers for background sound/prepulses and startle stimuli. Restrainers were mounted on top of a platform connected to a piezoelectric transducer, which measured downward startle force. Acoustic stimuli and startle force were calibrated using a Newton impulse calibrator (Kinder Scientific) and a microphone (Model 4016; ACO Pacific, Belmont, Calif.).
During the Gap-detection procedure, rats were exposed to constant 60 dB sound pressure level (SPL) background noise consisting of 2 kHz bandpass signals from 2-4 kHz, 6-8 kHz, 8-10 kHz, 10-12 kHz, 14-16 kHz, 18-20 kHz, or 26-28 kHz, or BBN (2-30 kHz). They were subjected to either a 50 ms white noise burst startle stimulus (startle only; dominating plateau from 3-37 kHz with energy up to 97.5 kHz) presented at 115 dB or the startle stimulus preceded by a 40 ms silent period beginning 90 ms before the startle stimulus (Gap). For each testing session, rats were presented 8 times with the startle only and Gap conditions for each frequency bandpass signal and BBN. The PPI procedure was identical to the Gap-detection procedure except that no background sound was presented. Rats were subjected to either the startle stimulus alone (startle only) or the startle stimulus preceded by a 40 ms prepulse beginning 90 ms before the startle stimulus. Prepulses (60 dB, SPL) consisted of the same frequencies as those used for background noise.
A two-minute acclimatization period was given at the beginning of each session, followed by two startle stimuli presented without background sound to trigger any initial, exaggerated startle reflexes. Gap-detection and PPI testing sessions lasted a little over thirty minutes each. […]

[3] = test system: rats exposed to embolic stroke; conditions: sildenafil treated rats; cited from earlier work
[4] = test system: Neurospheres isolated from the subventricular zone of adult rat brains; conditions: neurospheres treated with sildenafil; cited from earlier work
[5] = test system: blast-exposed Sprague Dawley rats (wave 1 amplitude); test: ABR wave 1 (P1N1) amplitude after blast exposure; assay type: in vivo, rat; conditions: 28 kHz
Procedure: ABRs were recorded to evaluate hearing thresholds. Each rat was anesthetized using a mixture of air (0.41/min) and isoflurane (2-3%, v/v) and placed in a prone position with its head fixed to a stereotaxic frame. Body temperature was maintained using a warming blanket connected to a thermostatic controller (Harvard Instruments, Holliston, Mass.). Acoustic stimuli consisted of 0.1 ms clicks or 10 ms pure-tone bursts presented at 4, 8, 12, 16, 20, or 28 kHz and delivered through a speaker tube inserted into the external auditory canal. Three subcutaneous platinum-coated tungsten electrodes were used to record ABR waveforms, with the reference electrode inserted below the pinna ipsilateral to the speaker tube, the grounding electrode inserted below the contralateral pinna, and the recording electrode inserted at the vertex. […] Data were recorded using BioSigRP® and SigGenRP® software (TDT, Alachua, Fla.) installed on an IBM computer connected to System 3 TDT workstation.
There is a significant reduction in wave 1 amplitudes in human subjects suffering from tinnitus despite a seemingly normal audiogram. In order to assess the possibility of underlying wave 1 amplitude reduction despite recovery of ABR thresholds, wave 1 amplitudes for 28 kHz frequency were measured at pre-blast and at 6 weeks post-blast and compared between the Treated and Untreated groups (FIGS. 7A and 7B). […]

[6] = test system: focal cerebral cryolesion; conditions: treatment following cryolesion; cited from earlier work

Question: For `CCCc1nn(C)c2c(=O)[nH]c(-c3cc(S(=O)(=O)N4CCN(C)CC4)ccc3OCC)nc12` [sildenafil, 1-[4-ethoxy-3-(6,7-dihydro-1-methyl-7-oxo-3-propyl-1H-pyrazolo[4,3-d]pyrimidin-5-yl)phenylsulfonyl]-4-methylpiperazine], which Tmax [1] is on record?
Answer: ≤ 11 min

Question: What about the “Gap-detection in Sham group (drug, no blast): tinnitus symptoms produced by the drug” value ([2]; Sham group: sildenafil 10 mg/kg, no blast exposure, throughout the study) of the same compound?
Answer: the drug itself did not produce tinnitus symptoms

Question: And the “Effect on high-frequency tinnitus (overall)” value ([2]; high-frequency (26-28 kHz) tinnitus, reemerged afterwards)?
Answer: suppressed high-frequency tinnitus from 3-6 weeks post-blast

Question: And the “Duration of therapeutic effect on blast-induced tinnitus (Gap-detection)” value ([2]; sildenafil 10 mg/kg oral gavage, two 7-day rounds)?
Answer: maintained up to week 6

Question: What about the “Effects after embolic stroke” value [3] of the same compound?
Answer: improvement in angiogenesis, selective increase in cerebral blood flow, and enhanced neurological functional recovery up to 6 weeks post-injury

Question: What about the cGMP concentration [4] of the same compound?
Answer: increased cGMP concentration

Question: And the “Wave 1 (P1N1) amplitude, Treated vs Untreated” value ([5]; exposed ear, 6 weeks post-blast)?
Answer: no significant differences between the two groups at time-matched points

Question: What about the “Decrease of wave 1 amplitude” value ([5]; 6 weeks after triple blast exposure, Treated group (same in Untreated)) of the same compound?
Answer: 45%

Question: For `CCCOc1ccccc1-c1nc2nn[nH]c2c(=O)[nH]1` [Zaprinast], which “Effects after focal cerebral cryolesion” value [6] is on record?
Answer: improved functional recovery, reduced oxidative stress, and prevention of apoptotic cell death
